We go through two compounds from patent US11690377B2, “Herbicidal composition and method of use thereof” (Belchim Crop Protection NV, priority 2017, dated 2023).

Structures are written as SMILES.

Common to all, as to assay type: in vivo
In assay [1] the test system is SETVI - Green foxtail (Setaria viridis). Nature of the assay: Field trial, post-emergence weed control in corn, SETVI. Here is the method:
Field trials were conducted in Tennessee and Illinois (USA). The crop and weed species had been seeded and/or drill sown. In the case of post-emergence evaluation, seeded and/or drill sown plants were grown to a certain growth stage before application of the active ingredients (alone or as a mixture). In the case of pre-emergence evaluation, the application of the active ingredients was carried out after the plants were seeded and/or drilled sown. The trial was in the form of a randomized complete block. The percentage of weed control was assessed in several different instances after treatment until a maximum of 42 days after treatment, by comparison with untreated control plots by visual scoring. The herbicidal action was assessed qualitatively and quantitatively. To quantify the synergic effect resulting from the combination of mesotrione and pyridate, the inventors used the methodology described by Colby, in which a synergistic effect exists when the activity of a composition comprising both active compounds is greater than the sum of the activities of the two active compounds applied individually. The expected activity for the combination of mesotrione and pyridate can be calculated by the following so-called “Colby equation” (see S. R. Colby, “Calculating Synergistic and Antagonistic Responses of Herbicide Combinations”, Weeds 1967, 15, 20-22). Pa+b=(Pa+Pb)−(Pa*Pb/100) Wherein • Pa+b is the expected percent inhibition of weed growth by the combination of mesotrione and pyridate; • Pa is the percent inhibition of weed growth induced by mesotrione; • Pb is the percent inhibition of weed growth induced by pyridate. If the actual percent inhibition of weed growth induced by the combination of mesotrione and pyridate is greater than the expected percent inhibition (Pa+b) calculated from the Colby equation, then the activity of the combination is synergistic. The below Tables represent the herbicidal performance of the composition according to the invention, and also the herbicidal performance of the active ingredients alone, in controlling specific weeds. The expected percent inhibition of weed growth (derived from the Colby's equation) and the actual (observed) percent inhibition of weed growth is also presented in order to conclude on the synergistic effect of the combination according to the invention. […]

Assay [2] concerns AMAPA - Palmer Pigweed (Amaranthus palmeri). Briefly: Field trial, pre-emergence weed control in corn, AMAPA. To be noted: mesotrione 3.85 oz/A, pyridate 6.84 oz/A, combination 3.85 + 6.84 oz/A. The protocol: (§1) Field trials were conducted in Tennessee and Illinois (USA). The crop and weed species had been seeded and/or drill sown. In the case of post-emergence evaluation, seeded and/or drill sown plants were grown to a certain growth stage before application of the active ingredients (alone or as a mixture). In the case of pre-emergence evaluation, the application of the active ingredients was carried out after the plants were seeded and/or drilled sown. The trial was in the form of a randomized complete block. The percentage of weed control was assessed in several different instances after treatment until a maximum of 42 days after treatment, by comparison with untreated control plots by visual scoring. The herbicidal action was assessed qualitatively and quantitatively. To quantify the synergic effect resulting from the combination of mesotrione and pyridate, the inventors used the methodology described by Colby, in which a synergistic effect exists when the activity of a composition comprising both active compounds is greater than the sum of the activities of the two active compounds applied individually. The expected activity for the combination of mesotrione and pyridate can be calculated by the following so-called “Colby equation” (see S. R. Colby, “Calculating Synergistic and Antagonistic Responses of Herbicide Combinations”, Weeds 1967, 15, 20-22). Pa+b=(Pa+Pb)−(Pa*Pb/100) Wherein • Pa+b is the expected percent inhibition of weed growth by the combination of mesotrione and pyridate; • Pa is the percent inhibition of weed growth induced by mesotrione; • Pb is the percent inhibition of weed growth induced by pyridate. If the actual percent inhibition of weed growth induced by the combination of mesotrione and pyridate is greater than the expected percent inhibition (Pa+b) calculated from the Colby equation, then the activity of the combination is synergistic. The below Tables represent the herbicidal performance of the composition according to the invention, and also the herbicidal performance of the active ingredients alone, in controlling specific weeds. The expected percent inhibition of weed growth (derived from the Colby's equation) and the actual (observed) percent inhibition of weed growth is also presented in order to conclude on the synergistic effect of the combination according to the invention. Pre-Emergence Herbicidal Performance of the Composition According to the Invention Against Broadleaf Weed in Corn.

Assay [3] deals with IPOHE - Ivyleaf Morningglory (Ipomoea headrace). Briefly: Field trial, pre-emergence weed control in corn, IPOHE. To be noted: mesotrione 3.85, pyridate 6.84, combination 3.85 + 6.84 (rate unit not given). Here is the method: as §1
The mark [4] stands for this setting: 14 days after treatment, mesotrione 2 oz/A, pyridate 2 oz/A, combination 2 + 2 oz/A.
Where [5] appears, read: 14 days after treatment, mesotrione 3 oz/A, pyridate 3 oz/A, combination 3 + 3 oz/A.
[6] abbreviates: 21 days after treatment, mesotrione 2 oz/A, pyridate 2 oz/A, combination 2 + 2 oz/A.
Where [7] appears, read: 21 days after treatment, mesotrione 3 oz/A, pyridate 3 oz/A, combination 3 + 3 oz/A.
Setting [8] is: 38 days after treatment, mesotrione 2 oz/A, pyridate 2 oz/A, combination 2 + 2 oz/A.
Where [9] appears, read: 38 days after treatment, mesotrione 3 oz/A, pyridate 3 oz/A, combination 3 + 3 oz/A.

For `CS(=O)(=O)c1ccc(C(=O)C2C(=O)CCCC2=O)c([N+](=O)[O-])c1` [mesotrione, Mesotrione], the “Mean percentage of weed control (observed)” value (“Mean percentage” for short) is 48% in assay [1] (setting [4]); 58% in assay [1] (setting [5]); 50% in assay [1] (setting [6]); 60% in assay [1] (setting [7]); 50% in assay [1] (setting [8]); 60% in assay [1] (setting [9]). In addition, the “Mean percentage” value is listed as 62% in assay [2] (7 days after treatment); 64% in assay [2] (14 days after treatment); 40% in assay [2] (28 days after treatment); 34% in assay [2] (42 days after treatment); 62% in assay [3] (7 days after treatment); 64% in assay [3] (14 days after treatment). Moreover, the “Mean percentage” value was determined as 40% in assay [3] (28 days after treatment) and 34% in assay [3] (42 days after treatment).

Turning to `CCCCCCCCSC(=O)Oc1cc(Cl)nnc1-c1ccccc1` [pyridate, Pyridate], the “Mean percentage” value in assay [1] (setting [4]), in assay [1] (setting [5]), in assay [1] (setting [6]), in assay [1] (setting [7]), in assay [1] (setting [8]) and in assay [1] (setting [9]) was 10% each time. For the same compound, the “Mean percentage” value is reported as 37% in assay [2] (7 days after treatment); 42% in assay [2] (14 days after treatment); 20% in assay [2] (28 days after treatment); 20% in assay [2] (42 days after treatment); 37% in assay [3] (7 days after treatment); 42% in assay [3] (14 days after treatment). Besides, the “Mean percentage” value in assay [3] (28 days after treatment) and in assay [3] (42 days after treatment) was 20% in each case.
